The values below come from patent publication EP1169336B1, “ENT-STEROIDS AS SELECTIVELY ACTIVE ESTROGENS” (Schering Aktiengesellschaft, priority 1999, dated 2000).

The conditions of assay [1]: reported, source not given; cited from earlier work.
The conditions of assay [2]: Endocrinology 63, 464 (1958); cited from earlier work.
The subject of assay [3] is hERβ. Format: binding, human. The following applies: for ERβ/ ER: quotient of RBA to hERβ and hER.
Assay [4] relates to Rat uterus ER. Nature of the assay: Estrogen receptor binding study, competition with 3H-estradiol, rat uterus cytosol. The conditions noted are these: 3H-estradiol as ligand, estradiol = 100.
For assay [5], the system named is Rat prost. ER. Nature of the assay: Estrogen receptor binding study, competition with 3H-estradiol, rat prostate cytosol.
The target in assay [6] is human estrogen receptor α (ERα) (Homo sapiens, UniProt P03372). The conditions noted are these: cited from earlier work.
Chain of human estrogen receptor α (ERα) (P03372 whole entry): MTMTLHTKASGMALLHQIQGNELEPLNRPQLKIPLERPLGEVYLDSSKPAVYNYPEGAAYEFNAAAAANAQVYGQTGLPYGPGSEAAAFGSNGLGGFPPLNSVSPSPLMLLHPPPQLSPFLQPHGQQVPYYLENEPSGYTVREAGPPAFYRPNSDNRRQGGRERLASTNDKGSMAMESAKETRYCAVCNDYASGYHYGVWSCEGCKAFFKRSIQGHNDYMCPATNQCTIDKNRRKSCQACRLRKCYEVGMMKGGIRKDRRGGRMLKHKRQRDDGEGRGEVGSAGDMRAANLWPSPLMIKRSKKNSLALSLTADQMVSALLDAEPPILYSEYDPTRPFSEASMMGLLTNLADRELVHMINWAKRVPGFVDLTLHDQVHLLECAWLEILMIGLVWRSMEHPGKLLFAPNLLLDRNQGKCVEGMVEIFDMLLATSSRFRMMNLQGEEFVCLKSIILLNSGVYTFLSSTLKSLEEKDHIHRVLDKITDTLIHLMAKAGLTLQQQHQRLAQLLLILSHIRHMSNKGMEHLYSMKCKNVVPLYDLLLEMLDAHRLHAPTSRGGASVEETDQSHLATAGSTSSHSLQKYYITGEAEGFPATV
The test system of assay [7] is hERβ. The conditions noted are these: cited from earlier work.
For assay [8] the following is noted: enantio form; J. Med. Chem. 10, 199-204 1967; cited from earlier work.

Read-outs that look alike come from different tables or passages of the source.

Consider `C[C@@]12CC[C@H]3c4ccc(O)cc4CC[C@H]3[C@H]1CC[C@H]2O` (single isomer, unassigned) [ent-8α-estradiol], for which the antilipemic activity entry in assay [1] is “antilipemic activity in the case of no feminization”.

For the compound `CC[C@@]12CC[C@@H]3[C@H](CCC4=CC(=O)CC[C@H]43)[C@H]1CC[C@]2(O)C#CCl` (single isomer, unassigned) [ent-17α-chloroethinyl-17β-hydroxy-18a-homo-estr-4-en-3-one], the “Clauberg Test” value in assay [2] was “ineffective”.

Consider `C[C@]12CC[C@H]3[C@@H](CC=C4C[C@@H](O)CC[C@@]43C)[C@@H]1CC[C@@H]2O` [5-Andro-stene-diol, 5-Androstenediol], for which the “ERβ/ ER” value in assay [3] amounted to 3. The “Rat uterus ER(RBA)” value in assay [4] amounted to 0.1. Also, the “Rat prost. ER(RBA)” value in assay [5] (3H-estradiol as ligand, prostate cytosol, estradiol = 100) was 5. In addition, in assay [5] (ratio of binding to prostate and uterus receptor), the “prost. ER/uterus ER” value turned out to be 50. Moreover, the “hER RBA*” value in assay [6] is recorded as 6. In assay [7], the “hERβ RBA*” value was 17.

For `C[C@]12CC[C@@H]3c4ccc(O)cc4CC[C@H]3[C@@H]1C[C@@H](O)C2=O` [16α-hydroxyestrone], the “binding to the human estrogen receptor β (ERβ) compared with the human estrogen receptor α (ERα)” value in assay [3] (some studies) is reported as “three times better”. Moreover, the “RBA value on the rat prostate estrogen receptor compared with the RBA value on the rat uterus estrogen receptor” value in assay [5] (some studies) is recorded as “five times better”.

For `C#C[C@@]1(O)CC[C@@H]2[C@H]3CCc4cc(O)ccc4[C@@H]3CC[C@]21C` [17α-Ethinylestradiol], the “estrogeneity, relative to estrone” value in assay [8] was “less than 5%”.

Turning to `C[C@]12CC[C@@H]3c4ccc(O)cc4CC[C@H]3[C@@H]1C[C@@H](O)[C@@H]2O` [Estriol], in assay [3], the “ERβ/ ER” value is recorded as 1.5. In assay [7] (relative binding affinity, estradiol = 100), the “hERβ RBA*” value was 21.

Consider `O=c1c(-c2ccc(O)cc2)coc2cc(O)cc(O)c12` [Geni-steine, Genisteine], for which the “ERβ/ ER” value in assay [3] is reported as 7.
